The values that follow are results of earlier work, collected in patent publication US20100158923A1, “REDUCING POLYGLUTAMINE-BASED AGGREGATION” (Northwestern University, priority 2003, published 2010).

Data set [1] has as its system GH release. Conditions: administered orally and parenterally.
In data set [2] the target is human SST2 (Homo sapiens, UniProt P30874).
Data set [3] has as its system IGF-1 levels. Conditions: administered subcutaneously.
Data set [4] has as its system GH secretion.

pKd: −log10 of the molar value.

Chain of human SST2 (P30874 whole entry): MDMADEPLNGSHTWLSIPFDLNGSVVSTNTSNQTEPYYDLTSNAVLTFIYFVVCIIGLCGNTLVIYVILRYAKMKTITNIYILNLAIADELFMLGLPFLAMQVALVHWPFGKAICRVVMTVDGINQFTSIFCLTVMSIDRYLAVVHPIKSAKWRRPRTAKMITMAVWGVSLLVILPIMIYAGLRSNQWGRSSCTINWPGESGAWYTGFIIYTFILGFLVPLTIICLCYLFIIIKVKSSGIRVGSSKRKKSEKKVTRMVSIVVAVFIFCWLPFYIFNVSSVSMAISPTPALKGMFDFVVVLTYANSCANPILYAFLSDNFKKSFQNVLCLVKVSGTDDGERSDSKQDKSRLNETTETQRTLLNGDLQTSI

As to `CC(C)(N)C(=O)N[C@H](COCc1ccccc1)C(=O)N1CCC2(CC1)CN(S(C)(=O)=O)c1ccccc12` [MK-0677], the GH-releasing effects result in data set [1] was “potent GH-releasing effects”.
With `CC(C)(C)OC(=O)[C@H](CCCCN)NC(=O)[C@@H](Cc1c[nH]c2ccccc12)NC(=O)N1CCC(n2c(=O)[nH]c3ccccc32)CC1` [L-054,522], the selectivity result in data set [2] (SST2 binding, comparison receptors not stated) is reported as “highly selective”. Moreover, in data set [2] (binding to human SST2, read-out: apparent Kd), the pKd was 11.00.
On to “Pegvisomant: modified human GH in which nine amino acids have been replaced, with polyethylene glycol polymers; GH receptor antagonist”, for which the “effect on IGF-1 levels” value in data set [3] is listed as “dose dependent reduction”.
For “[N-acetyl-Tyr^1,D-Arg^2] GHRH^1-29NH2 [standard GHRH antagonist]”, the “effect on human GH secretory response to exogenous GHRH” value in data set [4] (response to exogenous GHRH) is listed as “inhibits”. Further, the “effect on spontaneous GH secretion” value in data set [4] (spontaneous GH secretion) is given as “lowers”.

The pKd is the Kd on a negative log10 scale, so that one unit is a factor of ten.
